# Laboratory results from patent publication US11969428B2, “Methods and pharmaceutical compositions for treating lymphoid malignancy” (priority 2011, dated 2024).
# How the values were obtained:
# [1] = system: primary human T-ALL tumor cells; assay: Primary T-ALL cell viability on MS5-DL1 stroma; type: cell-based; conditions: primary T-ALL devoid of PTEN; 72 hours
# Protocol: (§1) Cell proliferation of CCRF-CEM cells or shRNA transfected CCRF-CEM cells, in the presence or absence of appropriate drug, was followed by cell counting of samples in triplicate using a hemocytometer and trypan blue. For apoptosis determinations of untransfected or shRNA transfected CCRF-CEMs, cells were stained with APC-conjugated Annexin-V (BD Biosciences) in Annexin Binding Buffer (Miltyeni Biotec) and analyzed by flow cytometry. For primary T-ALL samples, cell viability was assessed using the BD Cell Viability kit (BD Biosciences) coupled with the use of fluorescent counting beads as previously described (Armstrong et al., 2009). For this, cells were plated with MS5-DL1 stroma cells, and after 72 hours following drug treatment cells were harvested and stained with an APC-conjugated anti-human CD45 followed by a staining with the above kit according to the manufacturer's instructions.
# [2] = system: CCRF-CEM xenograft; assay: Systemic (intravenous) CCRF-CEM xenograft, survival; type: in vivo, mouse; conditions: treatment from 3 days post-injection for 7 days
# Protocol: After 3 days, mice were segregated into two treatment groups that received either CAL-130 or vehicle by oral gavage as described above for 7 days. Mice in both groups were then followed until moribund (and euthanized).
# In the former, luciferase expressing CCRF-CEM cells were injected into the flanks of immunodeficient mice and allowed to grow for 1 week before administering vehicle control or inhibitor (10 mg kg^−1 every 8 hours) for a total of 4 days. In the latter, treatment commenced 3 days post-injection of tumor cells for a total of 7 days. […] This translated into an increase in median survival time for treated animals with systemic disease of 35 days versus 23 days for mice that received vehicle control alone (FIG. 19D).
# [3] = system: platelets; assay: ADP-induced platelet aggregation; type: cell-based, mouse; conditions: platelets from p110γ/δ double knockout mice 2 hours post administration of CAL-130 (10 mg kg−1)
# Protocol: Blood was obtained from anesthetized p110δ/γ double knockout mice via cardiac puncture. Platelets were purified from PRP by centrifugation and resuspended to a final concentration of […] in buffer (145 mM NaCl, 10 mM Hepes, 0.5 mM Na2HPO4, 5 mM KCl, 2 mM MgCl2, 1 mM CaCl2, 0.1% glucose, pH 7.4). CAL-130 (1 μM, 2.5 μM, or 5 μM final concentration) or DMSO was added to platelet suspensions 5 minutes prior to inducing aggregation with ADP (25 μM). Mouse fibrinogen (final concentration 200 μg/ml) was also added to the platelet suspensions just prior to activation as previously described (Magallon et al., 2011). Aggregation was assessed using a Chronolog Lumi-Aggregometer (model 540 VS, Chronolog, Havertown, PA). In some experiments, blood was collected 2 hours after administering a single dose of CAL-130 (10 mg kg^−1) or vehicle control and ADP-induced aggregation evaluated.
# [4] = system: CCRF-CEM cells; assay: Cell proliferation and apoptosis (cell counting, Annexin V); type: cell-based, human; conditions: CCRF-CEM
# Protocol: as §1
# [5] = system: CCRF-CEM xenografts; assay: Subcutaneous CCRF-CEM (CEM-luc) xenograft, bioluminescence; type: in vivo, mouse; conditions: 10 mg kg−1 every 8 hours for 4 days
# Protocol: For subcutaneous xenograft experiments, luminescent CCRF-CEM (CEM-luc) cells were generated by lentiviral infection with FUW-luc and selection with neomycin. Luciferase expression was verified with the Dual-Luciferase Reporter Assay kit (Promega Corp., Madison, WI). […] After 1 week, mice were treated by oral gavage with vehicle (0.5% methyl cellulose, 0.1% Tween-80), or CAL-130 (10 mg kg^−1) (Gilead Sciences, Foster City, CA) every 8 hours daily for 4 days and then tumors imaged as follows: mice anesthetized by isoflurane inhalation were injected intraperitoneally with D-luciferin (50 mg kg^−1, Xenogen, Calipers Life Sciences, Hopkinton, MA). Photonic emission was imaged with the In Vivo Imaging System (IVIS, Xenogen). Tumor bioluminescence was quantified by integrating the photonic flux (photons per second) through a region encircling each tumor using the LIVING IMAGES software package (Xenogen).
# In the former, luciferase expressing CCRF-CEM cells were injected into the flanks of immunodeficient mice and allowed to grow for 1 week before administering vehicle control or inhibitor (10 mg kg^−1 every 8 hours) for a total of 4 days. In the latter, treatment commenced 3 days post-injection of tumor cells for a total of 7 days. […]
# [6] = system: CCRF-CEM cells; assay: Immunoblots of signaling downstream of PI3K; type: cell-based, human
# Protocol: Cell lysates (from cell lines or thymocytes) were prepared on ice in M-PER Mammalian Protein Extraction reagent (Pierce) containing a cocktail of protease and phosphatase inhibitors (Swat et al., 2006). Equal amounts of total protein from lysates were subjected to SDS-PAGE, transferred to PVDF membrane (Immobilon-P, Millipore), and membranes probed by overnight incubation with appropriate primary antibodies. Bound antibodies were visualized with HRP-conjugated secondary antibodies and ECL chemistry (SuperPico West, Pierce).
# The PI3K/Akt signaling pathway can play a major role in cell cycle progression and growth of tumors by regulating the activation state of the downstream targets such as glycogen synthase kinase-3β (GSK3β) and mTOR (Schmelzle and Hall, 2000; Cohen and Frame, 2001). PI3K/Akt mediated phosphorylation suppresses the function of the former and promotes the activity of the latter. Tumor cell survival, on the other hand, is largely mediated by the ability of this pathway to inactivate proapoptotic effectors such as the BH3-only pro-apoptotic protein BAD and to repress the expression of BIM, both of which participate in the mitochondria-dependent cell death pathway (Strasser et al., 2000; Duronio, 2008). Therefore, the ability of CAL-130 treatment to interfere with such events was examined. […] Downstream targets of this protein kinase were also affected as evidenced by the reduction in phosphorylation of GSK3β and mTOR. […] The latter would also explain in part the synergy between CAL-130 and dexamethasone, as BIM expression is required for glucocorticoid-induced apoptosis (Erlacher et al., 2005; Wang et al., 2003).
# [7] = system: Ca2+ flux in thymocytes; assay: Calcium flux assay after TCR cross-linking; type: cell-based, mouse; conditions: wild type thymocytes; to levels of Pik3cg−/−;pik3cd−/− counterparts
# Protocol: Thymocytes or lymphocytes were preloaded with Fluo-4 AM (Molecular Probes, Eugene, OR) at 5 μg/mL for 30 minutes at 37° C., labeled with anti-CD4-APC conjugate (BD Biosciences) to permit gating on this T-cell subset during analysis, and finally washed and resuspended (2×10^6/mL) in DMEM and 10% FCS. After a baseline was established at quiescence, Ca^2+ flux was induced by the addition in tandem of anti-CD3e (hamster antimouse antibody; BD Biosciences) and the anti-hamster IgG polyclonal antibody (Jackson ImmunoResearch, West Grove, PA) for cross-linking. The resultant flux in Ca^2+ was measured for 5 minutes by flow cytometry, and total flux was established by the addition of ionomycin (0.5 μg/mL). Drug inhibition of Ca^2+ flux was measured after 30 minute pre-incubation with CAL-130 at room temperature of dye loaded cells. Percentage overall change in Ca^2+ flux is reported as (Ca^2+ fluxpeak−Ca^2+ fluxbaseline/Ca^2+fluxionomycin−Ca^2+fluxbaseline)×100.
# [8] = within 24 hours, persisted over 4 days
structure (smiles),measurement,setting,value
Cc1ccccc1-n1c(C(C)Nc2nc(N)nc3nc[nH]c23)nc2cccc(C)c2c1=O (stereo not shown) [CAL-130],tumor cell viability,[1],reduction in tumor cell viability
same,median survival time,[2],35 days
same,ADP-mediated platelet aggregation,[3],no obvious defect
same,apoptotic properties of dexamethasone,[4]; dexamethasone in combination with 2.5 μM CAL-130,significantly enhanced
same,apoptosis,[4]; [8],promoted apoptosis
same,proliferation,[4]; [8],prevented proliferation
same,"difference in luminescence, treated versus vehicle control",[5],5 fold
same,expression of BIM (including L and S isoforms),[6],enhanced expression
same,phosphorylation of BAD,[6],reduction
same,phosphorylation of GSK3β,[6],reduction
same,phosphorylation of mTOR,[6],reduction
same,Akt (Ser473) phosphorylation,"[6]; 2.5 μM, 6 hours",complete abrogation
same,calcium flux in response to TCR cross-linking,[7],attenuated
